A short description of this data set: Solubility tests in anhydrous hexane (stirred 30 minutes at room temperature, filtered, solvent removed). The data set is classed as physicochemical. On the procedure: (§1) This solution was stirred for 30 minutes at room temperature. The contents were then filtered through a buchner filter funnel with a frit having a 4-5.5 micron size. The solvent was then removed en vacuo.
as §1

The source of these data is patent US11718635B2, “Iron bis(imino) aryl catalysts and methods thereof” (ExxonMobil Chemical Patents Inc., priority 2019, dated 2023).

As to `CC(=Nc1c(C)cc(C)cc1Cl)c1cccc(C(C)=Nc2c(C)cc(C)cc2Cl)n1.[Cl][Fe][Cl]` [2,6-bis-[1-(2-chloro-4,6-dimethylphenylimino)ethyl]pyridine iron dichloride], the calculated solubility (anhydrous hexane, stirred 30 minutes at room temperature, filtered through 4-5.5 micron frit) is 0.0 g/g hexane.
Consider “(E)-N-(2-chloro-4,6-dimethylphenyl)-1-(6-((E)-1-(mesitylimino)ethyl)pyridin-2-yl)ethan-1-imine iron-silylneopentyl [Catalyst 1]”, for which the “solubility in hydrophobic (nonpolar) solvents compared to the Comparative Catalyst” value is on record as “significantly improved solubility”.
